Data: ChEMBL document CHEMBL1146269, “Intermediate analogue inhibitors of mandelate racemase: N-Hydroxyformanilide and cupferron” (Bioorg Med Chem Lett, 2007)

Assays:
[1] = biological target: T1, Mandelate racemase (Pseudomonas putida, UniProt P11444); test: Inhibition of mandelate racemase in Pseudomonas putida
T1 sequence (P11444 whole entry): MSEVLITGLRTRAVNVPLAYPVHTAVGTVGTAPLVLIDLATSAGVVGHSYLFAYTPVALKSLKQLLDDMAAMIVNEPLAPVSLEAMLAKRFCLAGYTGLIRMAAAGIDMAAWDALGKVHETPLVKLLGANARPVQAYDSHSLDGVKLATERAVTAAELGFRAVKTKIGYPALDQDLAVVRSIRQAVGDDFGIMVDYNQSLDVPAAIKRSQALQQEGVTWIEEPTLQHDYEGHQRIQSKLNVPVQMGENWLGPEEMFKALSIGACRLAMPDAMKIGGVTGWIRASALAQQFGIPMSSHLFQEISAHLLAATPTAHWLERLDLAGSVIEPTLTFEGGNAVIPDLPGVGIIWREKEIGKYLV

[2] = Dissociation constant, pKa of the compound; assay type: physicochemical

| pKa [2] | Compound | Ki [1] [µM] |
| --- | --- | --- |
|  | O=C1Cc2ccccc2N1O | 510 |
| 7.92 | O=CN(O)c1ccccc1 | 2.79 |
|  | O=C(NO)c1ccccc1 [BENZOHYDROXAMATE] | 12 |
|  | O=NN(O)c1ccccc1 [CUPFERRON] | 2.67 |
